Measured values published in patent US20110091387A1, “METHODS AND COMPOSITIONS FOR REDUCING SKIN DAMAGE” (THE GENERAL HOSPITAL CORPORATION, priority 2007, published 2011).
Where a name gives a salt, the structure may show the parent alone.

Columns and labels:
[1] = tested on: RhoE promoter; test: RhoE promoter luc2 luciferase reporter screen for inducers of RhoE expression; format: cell-based; conditions: luminescence at 24 hours; for Composite Z value (induction of RhoE expression): Table 1, two replicates per compound
Experimental: To isolate compounds that can activate RhoE pathway in keratinocytes and protect against UVB exposure, a robust and sensitive chemical genetics approach was developed for the identification of small molecules that induce RhoE expression. Briefly, a reporter construct was created that included the RhoE promoter operatively linked to the luc2 luciferase reporter gene (FIG. 1A). Stable cell lines were produced that expressed the reporter construct, and the cells were plated in 384 well plates at ˜10,000 cells per well. The library test compounds were added to the plated cells at two replicates per compound, and the cells were incubated with the compounds for 24 hours. Luminescence was measured at 24 hours using a plate reader. The data were analyzed using Spotfire.

[2] = tested on: RhoE; test: Western blot of RhoE and p53 expression after kaempferol treatment; format: cell-based; conditions: FIG. 3; relative to p53 expression
Excerpt: FIG. 3 is a Western blot depicting RhoE and p53 expression following treatment with the indicated amounts of kaempferol.

[3] = tested on: HaCaT human keratinocyte cells; test: UVB-induced cell death in HaCaT keratinocytes; format: cell-based; conditions: 1 and 2.5 μM; UVB 30 mJ/cm^2; 24 hours later; FIG. 4
Experimental: To determine whether RhoE inducing compounds have the protective effect on the UVB damage-mediated cell death, kaempferol-treated (1 and 2.5 μM) HaCaT human keratinocyte cells were exposed to UVB (30 mJ/cm^2), and 24 hours later cell death rate was examined (FIG. 4).

[4] = tested on: UVB damaged mouse skin; test: UVB damaged mouse skin treated topically (TUNEL, CPD, phospho-H2AX, RhoE staining); format: in vivo
Experimental: Next, it was investigated whether kaempferol has any protective effect and or DNA repair potential on UVB damaged mouse skin. The dorsal hair of 8-week-old, C57BL/6 mice was trimmed and fine hair was removed by application of a hair-remover, 2 days before UVB exposure. Restrained mice were UVB irradiated at 120 mJ/cm^2 and treated with 0.5 mM kaempferol in 50 μl DMSO or DMSO control. The skin was removed from euthanized mice at various times after UVB exposure, fixed immediately in 4% neutral buffered paraformaldehyde, embedded in OCT, and sectioned at 8-μm thickness. Apoptotic cells were detected in skin sections harvested 16 hours after exposure to UVB, by the terminal nucleotidyl transferase-mediated nick end labeling (TUNEL) assay (Roche Applied Science, Germany) according to the manufacturer's instructions. […] The levels of an activated form of H2AX (Ser139) that is known to be activated and bound at the sites of DNA damage in response to UVB damage were also measured by staining with Anti-Phospho-H2AX (Ser139) antibodies (Upstate Cell Signaling Solutions, New York).

| Compound | Composite Z value (induction of RhoE expression) [1] | also measured |
| --- | --- | --- |
| O=c1c(O)c(-c2ccc(O)cc2)oc2cc(O)cc(O)c12 [Kaempferol] | 6.2959 | Composite Z ([1]; Table 2, two replicates): 6.2959; RhoE expression (Western blot) [2]: able to activate RhoE expression in a p53-independent manner; UVB-induced cell death rate [3]: suppression of UVB-induced cell death; Apoptosis in epidermis (TUNEL) ([4]; 0.5 mM in 50 μl DMSO, UVB 120 mJ/cm^2, 16 hours after exposure, vs DMSO, FIG. 5): inhibited apoptosis induced by UVB damage in epidermis; Cyclobutane pyrimidine dimer (CPD) formation in epidermis (TDM-2 staining) ([4]; 0.5 mM, UVB 120 mJ/cm^2, FIGS. 6A-6C): suppressed pyrimidine dimmer formation; Levels of activated form of H2AX (Ser139) in skin ([4]; 0.5 mM, UVB 120 mJ/cm^2, FIGS. 7A-7C): significantly decreased; RhoE expression in suprabasal area of epidermis ([4]; 0.5 mM, UVB exposure, FIG. 8): enhanced |
| O=c1cc(-c2ccc(O)c(O)c2)oc2cc(O)cc(O)c12 [Luteolin] | 2.3069 |  |
| Oc1ccc2c(c1)OC[C@H]1c3cc4c(cc3O[C@@H]21)OCO4 [Maackiain] | 2.2116 |  |
| COC(=O)Nc1nc2ccc(SC(C)C)cc2[nH]1 [Methiazole] | 2.2516 |  |
| Oc1ccc(OCc2ccccc2)cc1 [Monobenzone, reference compound] | 2.1629 |  |
| O=C1C[C@@H](c2ccc(O)cc2)Oc2cc(O)cc(O)c21 [Naringenin] | 2.3231 |  |
| COc1ccc(CC(=O)c2ccc(O)cc2O)cc1 [Ononetin] | 2.6414 |  |
| CCCOc1ccc2nc(NC(=O)OC)[nH]c2c1 [Oxibendazole, reference compound] | 2.2003 |  |
| CC(C)N(C(=O)CCl)c1ccccc1 [Propachlor] | 2.8556 |  |
| CCN(CC)CCCC(C)Nc1c2ccc(Cl)cc2nc2ccc(OC)cc12 (stereo not drawn) [Quinacrine dihydrochloride dihydrate, reference compound] | 2.324 |  |
| COc1cc(O)c2c(=O)c(O)c(-c3ccc(O)c(O)c3)oc2c1 [Rhamnetin] | 2.1577 |  |
| CNc1ccccc1C(=O)N1CCc2c([nH]c3ccccc23)C1=O [Rhetsinine] | 3.357 |  |
| c1ccc2[nH]c(-c3cscn3)nc2c1 [Tiabendazole, reference compound] | 3.5924 |  |
| CCN(CC)CCOc1ccc2c(c1)C(=O)c1cc(OCCN(CC)CC)ccc1-2 [Tilorone, reference compound] | 3.4862 |  |
| CC1=C(/C=C/C(C)=C/C=C/C(C)=C/C(=O)O)C(C)(C)CCC1 [Tretinoin, reference compound] | 2.2603 |  |
| O=c1c2ccccc2oc2ccccc12 [Xanthone] | 3.79 |  |

| Compound | Composite Z value (induction of RhoE expression) [1] | also measured |
| --- | --- | --- |
| CC1(C)C=Cc2cc3ccc(=O)oc3cc2O1 [Xanthyletin] | 2.6831 |  |
| COc1ccc(-c2cc(=O)c3c(OC(C)=O)cc(OC(C)=O)cc3o2)cc1 [acacetin diacetate] | 3.977 |  |
| CC(=O)Oc1ccc(-c2cc(=O)c3c(OC(C)=O)cc(OC(C)=O)cc3o2)cc1 [apigenin triacetate] | 4.6992 |  |
| Cl.NNCc1ccccc1 [benzylhydrazine hydrochloride] | 2.3759 |  |
| COc1ccc(-c2coc3cc(OC(C)=O)cc(OC(C)=O)c3c2=O)cc1 [biochanin a diacetate] | 3.6564 |  |
| COc1ccc(-c2coc3cc(O)cc(O)c3c2=O)cc1 [biochanin a] | 3.2901 |  |
| COc1cc(OC)c2c(=O)cc(-c3ccccc3)oc2c1 [chrysin dimethyl ether] | 3.477 |  |
| COc1ccc2c(=O)c(-c3cc4c(cc3OC)OCO4)coc2c1 [cuneatin methyl ether] | 2.23 |  |
| C=CC(C1=CC(=O)C(OC)=CC1=O)c1ccc(O)cc1 (stereo not drawn) [dalbergione, 4-methoxy-4′-hydroxy-] | 2.3862 |  |
| CC[C@H]1OC(=O)[C@H](C)[C@@H](O[C@H]2C[C@@](C)(OC)[C@@H](O)[C@H](C)O2)[C@H](C)[C@@H](O[C@@H]2O[C@H](C)C[C@H](N(C)C)[C@H]2O)[C@](C)(O)C[C@@H](C)C(=O)[C@H](C)[C@@H](O)[C@]1(C)O [erythromycin stearate, reference compound] | 3.1488 |  |
| COc1cc(O)c(C(=O)/C=C/c2ccccc2)c(OC)c1 [flavokawain b] | 3.604 |  |
| NNc1nncc2ccccc12 [hydralazine hydrochloride, reference compound] | 2.3583 |  |
| COc1ccc(C2CC(=O)c3ccc(OC)cc3O2)cc1 (stereo not drawn) [liquiritigenin dimethyl ether] | 4.6362 |  |
| CC(C)C[C@H](NC(=O)OCC1c2ccccc2-c2ccccc21)C(=O)O [n-(9-fluorenylmethoxycarbonyl)-1-leucine] | 2.8734 |  |
| COc1ccc2c(c1)OCC(=Cc1ccc(O)c(O)c1)C2=O [sappanone a 7-methyl ether] | 2.4579 |  |
| COC(=O)C(C)c1ccc(C(=O)c2cccs2)cc1 (stereo not drawn) [suprofen methyl ester] | 3.2205 |  |
